Assay results from PMC12291119, “In Vitro Selection of Cyclized, Glycosylated Peptide Antigens That Tightly Bind HIV High Mannose Patch Antibodies” (ACS Central Science, 2025).
Numbered stars: 1 amine (or outer) side, 2 acyl side, 3 side chain; on linkers, the order of the positions; unused ones are H or OH. Bridge positions count the residues as written; N and C are the ends. Square brackets hold non-standard residues; d marks the D form. Ends that are not written are not given here. * marks the point of attachment. X1 = CC(=O)N[C@@H]1[C@@H](O)[C@H](O[C@@H]2O[C@H](CO)[C@@H](O[C@@H]3O[C@H](CO[C@H]4O[C@H](CO[C@H]5O[C@H](CO)[C@@H](O)[C@H](O)[C@@H]5O[C@H]5O[C@H](CO)[C@@H](O)[C@H](O)[C@@H]5O)[C@@H](O)[C@H](O[C@H]5O[C@H](CO)[C@@H](O)[C@H](O)[C@@H]5O[C@H]5O[C@H](CO)[C@@H](O)[C@H](O)[C@@H]5O)[C@@H]4O)[C@@H](O)[C@H](O[C@H]4O[C@H](CO)[C@@H](O)[C@H](O)[C@@H]4O[C@H]4O[C@H](CO)[C@@H](O)[C@H](O)[C@@H]4O[C@H]4O[C@H](CO)[C@@H](O)[C@H](O)[C@@H]4O)[C@@H]3O)[C@H](O)[C@H]2NC(C)=O)[C@@H](CO)O[C@H]1n1cc(CC[C@H](N[*:1])C(=O)[*:2])nn1; Biotin = O=C1N[C@H]2[C@H](CS[C@H]2CCCCC(=O)*)N1; mXylylene = c1cc(C[*:1])cc(C[*:2])c1

Key:
PGT128 = assay: Biolayer interferometry (BLI) of immobilized biotinylated glycopeptides binding to PGT128; settings: for fold decrease in PGT128 binding relative to parent H1 glycopeptide: BLI KD compared with H1 (peptide 1)
Text: 6 Biolayer interferometry (BLI) measurement of glycopeptides immobilized via biotin on a streptavidin biosensor binding to PGT128. All sensorgrams represent a series of 2-fold dilutions of antibody with highest concentration tested labeled. All sequences followed by GSGSGK(Biotin). M denotes homopropargylglycine, modified by CuAAC as in Figure .
C. Binding Analysis of PGT Antibody-Peptide/Glycopeptide Interactions by Biolayer Interferometry
1. Biolayer Interferometry Protocol
Biotinylated glycopeptide was loaded onto a streptavidin biosensor in 250 µL buffer 1 (500 to 1000 nM […] glycopeptide in 20 mM Tris pH 7.5, 150 mM NaCl, 0.2 mg/ml BSA, 0.02% (v/v) Tween-20) for 120s in a […] of black Eppendorf tube. The sensor was then washed with 250 µL of blank buffer 1 for 120 seconds in a […] black Eppendorf tube. The sensor was washed with 250 µL buffer 3 (10 mM glycine HCl, pH 2.5) for 120 seconds in […] of black Eppendorf tube and followed by 250 µL of blank buffer 1 for 120 seconds in a […] black Eppendorf tube to immobilize glycopeptides in a range of 0.5 nm to 2 nm response. The sensor was then equilibrated with 250 µL of buffer 2 (20 mM Tris pH 7.5, 150 mM NaCl, 2 mg/ml BSA, 0.1% (v/v) Tween-20) for 120 seconds in a […] of black Eppendorf tube PGT antibody (prepared in buffer 2) was associated at several concentrations for 300 seconds in 4 µL drop holder followed by dissociation into blank 250 µL of buffer 2 for 300 seconds in […] of black Eppendorf tube. After each dissociation sensor was regenerated to remove the remaining antibody by treatment with 250 µL of buffer 3 for 120 seconds, followed by 120 seconds of wash with 250 µL buffer 1 and re-equilibration with 250 µL buffer 2 in […] of black Eppendorf tube. Throughout the experiment, the shaker rate was set at 2200 rpm. Data were fit globally to a 1:1 binding model.
2. BLI Sensorgram of H1-QQQ-non-glycosylated Peptide with PGT128
Figure S33. […]

HIV pseudovirus panel = settings: ref number not given, cited from earlier work
Text: We have sought to mimic HMP epitopes without using either the entire Env protein, which contains a plethora of “distracting” epitopes that easily elicit off-target antibodies; − or short glycopeptides directly derived from the Env sequence, which may not sufficiently recapitulate the HMP structure without the conformational support of the remaining Env protein. Aiming to design glycostructures that better mimic the glycan presentation in the HMP, we have pioneered various techniques for the directed evolution of DNA, , RNA, F-RNA, or peptide-supported , glycan clusters.

HIV Env = settings: read-out: reported affinities of PGT122 for HIV Env; ref number not given; cited from earlier work
Text: We performed preliminary binding assays for those sequences and others using translated peptides with or without attached glycans. No sequ ...

[1] = diverse/representative HIV pseudovirus panel

## ALFKPYPKIGDIRKARC[X1]LQHTLHHRTNKQPSYRRRLKTLIPLFRRC[X1]LGSGSGK(Biotin)-NH2 (linker 17-47 via mXylylene; C-terminus assumed) [compound 2]
PGT128; BLI, peptide immobilized via biotin on streptavidin biosensor, 2-fold dilutions of PGT128 in 20 mM Tris pH 7.5, 150 mM NaCl, 2 mg/ml BSA, 0.1% Tween-20, 300 s association, 300 s dissociation, global 1:1 fit
  Kd: 16.9 nM

## AYTEKHNGIGDIRPAICQNSKNQNHRCNHYQIKLYIH[X1]L[X1]RLPHNYRNSGSGSGK(Biotin)-NH2 (linker 17-27 via mXylylene; C-terminus assumed) [peptide 3]
PGT128
  fold decrease in PGT128 binding relative to parent H1 glycopeptide: ~2 fold

## AYTEKHNGIGDIRPAIC[X1]NSKNQNHRCNHYQIKLYIHQLQRLPHNYRNSGSGSGK(Biotin)-NH2 (linker 17-27 via mXylylene; C-terminus assumed) [peptide 4]
PGT128
  fold decrease in PGT128 binding relative to parent H1 glycopeptide: ~40 fold

## PGT122: HIV bnAb binding the High Mannose Patch
HIV pseudovirus panel; [1]
  breadth (fraction of HIV pseudovirus panel neutralized): 65%
  median IC50: 0.05 µg/mL
HIV pseudovirus panel; neutralization potency
  potency (EC50): 0.05 µg/mL
HIV Env
  Kd: 100 to 174 nM
